The assay addresses T1, HCV polymerase (NS5B570n-Con1) (Hepatitis C virus genotype 1b, UniProt Q9WMX2).
T1 construct: a 21 amino acid C-terminal deletion of full-length HCV polymerase; made in house; host or cells: E. coli BL21(DE3) pLysS, plasmid pET17b
As to the kind of experiment: HCV NS5B RNA polymerase activity (incorporation of radiolabeled nucleotide into acid insoluble RNA). Format: biochemical, HCV Con1 strain. On the procedure: The enzymatic activity of HCV polymerase (NS5B570n-Con1) was measured as the incorporation of radiolabeled nucleotide monophosphates into acid insoluble RNA products. Unincorporated radiolabeled substrate was removed by filtration and scintillant was added to the washed and dried filter plate containing radiolabeled RNA product. The amount of RNA product generated by NS5B570n-Con1 at the end of the reaction was directly proportional to the amount of light emitted by the scintillant.
The HCV polymerase used in the enzymatic activity assay is a 21 amino acid C-terminal deletion of full-length HCV polymerase derived from HCV Con1 strain, genotype 1b (GenBank accession number AJ242654) (NS5B570n-Con1). The NS5B570n-Con1 was sub-cloned downstream to the T7 promoter of the plasmid expression construct pET17b and transformed into E. coli strain BL21(DE3) pLysS for protein expression. A single colony was used to start an innoculum for a 10 L culture in LB media supplemented with 100 μg/mL ampicillin at 37° C. Protein expression was induced by the addition of 0.25 mM isopropyl-β-D-thiogalactopyranoside (IPTG) when the optical density of the culture at […] was 0.8. Induction of protein expression was carried out at 30° C. for 16 h after which the cells were harvested by centrifugation. NS5B570n-Con1 was purified to homogeneity using a three-column purification protocol including subsequent column chromatography on Ni-NTA, SP-Sepharose HP and Superdex 75 resins.
Enzymatic reactions in the presence of cIRES RNA template (see paragraph [00213]) contained 20 nM cIRES RNA, 20 nM NS5B570n-Con1 enzyme, 0.5 μCi of tritiated UTP (Perkin Elmer catalog no. TRK-412; specific activity: 30 to 60 Ci/mmol;), 1 μM each ATP, CTP, and GTP, 40 mM Tris-HCl pH 8.0, 40 mM NaCl, 4 mM DTT (dithiothreitol), 4 mM MgCl2, 5 μl of compound serial diluted in DMSO, and nuclease-free water to a final reaction volume of 50 μl. Enzymatic reactions in the presence of poly A RNA template (see paragraph [00213]) contained 20 nM Poly A:oligo(rU)16 premixed (see section 0004), 20 nM NS5B570n-Con1 enzyme, 1 μCi of tritiated UTP (Perkin Elmer catalog no. TRK-412; specific activity: 30 to 60 Ci/mmol), 40 mM Tris-HCl pH 8.0, 40 mM NaCl, 4 mM DTT (dithiothreitol), 4 mM MgCl2, 5 μl of compound serial diluted in DMSO, and nuclease-free water to a final reaction volume of 50 μl. Reaction mixtures were assembled in 96-well filter plates (cat #MADVN0B, Millipore Co.) and incubated for 2 h at 30° C. Reactions were stopped by addition of 10% final (v/v) trichloroacetic acid and incubated for 40 min at 4° C. Reactions were filtered, washed with 8 reaction volumes of 10% (v/v) trichloroacetic acetic acid, 4 reaction volumes of 70% (v/v) ethanol, air dried, and 25 μl of scintillant (Microscint 20, Perkin-Elmer) was added to each reaction well.
Two RNA templates were used to assay compounds described herein. The cIRES RNA template was 377 nucleotide long and consisted of a partial complementary sequence (36 nucleotides) of the core protein, followed by 341 nucleotide of the complementary sequence of the internal ribosome entry site. The poly A RNA template (GE Amersham catalog number 27-4110) was a homopolymeric RNA pre-annealed to a oligo(rU)16 primer at a molar ratio of 3-to-1 (primer-template).
The amount of light emitted from the scintillant was converted to counts per minute (CPM) on a Topcount® plate reader (Perkin-Elmer, Energy Range: Low, Efficiency Mode: Normal, Count Time: 1 min, Background Subtract: none, Cross talk reduction: Off).
Data was analyzed in Excel® (Microsoft®) and ActivityBase® (Idbs®). The reaction in the absence of enzyme was used to determine the background signal, which was subtracted from the enzymatic reactions. Positive control reactions were performed in the absence of compound, from which the background corrected activity was set as 100% polymerase activity. All data was expressed as a percentage of the positive control. […]

pIC50: −log10 of the molar value.

Turning to `O=c1ncn(Cc2ccc(Cl)cc2)c2cc(-c3ccc(Oc4ccccc4)cc3)sc12` [Compound I-24, 1-(4-Chloro-benzyl)-6-(4-phenoxy-phenyl)-1H-thieno[3,2-d]pyrimidin-4-one], the pIC50 is 6.82. `Nc1nccc(C(=O)Nc2ccc(-c3cc4c(s3)c(=O)ncn4Cc3ccc(Cl)cc3)cc2)n1` [Compound I-8, 2-Amino-pyrimidine-4-carboxylic acid {4-[1-(4-chloro-benzyl)-4-oxo-1,4-dihydro-thieno[3,2-d]pyrimidin-6-yl]-phenyl}-amide]: the pIC50 was 7.59. `COc1ccc(COc2ccc(-c3cc4c(s3)c(=O)ncn4Cc3ccc(Cl)cc3)cc2)cc1` [Compound I-11, 1-(4-chloro-benzyl)-6-[4-(4-methoxy-benzyloxy)-phenyl]-1H-thieno[3,2-d]pyrimidin-4-one] gave a pIC50 of 7.49. The figure for `O=c1ncn(Cc2ccc(Cl)cc2)c2cc(-c3ccc(SCc4ccccn4)cc3)sc12` [Compound I-48, 1-(4-Chloro-benzyl)-6-[4-(pyridin-2-ylmethylsulfanyl)-phenyl]-1H-thieno[3,2-d]pyrimidin-4-one] is 6.79.

Turning to `O=C(Nc1ccc(-c2cc3c(s2)c(=O)ncn3Cc2ccc(Cl)cc2)cc1)c1ccccn1` [Compound I-39, Pyridine-2-carboxylic acid {4-[1-(4-chloro-benzyl)-4-oxo-1,4-dihydro-thieno[3,2-d]pyrimidin-6-yl]-phenyl}-amide], the pIC50 was 8.30.

`O=C(Nc1ccc(-c2cc3c(s2)c(=O)ncn3Cc2ccc(Cl)cc2)nc1)c1ccccn1` [Compound I-40, Pyridine-2-carboxylic acid {6-[1-(4-chloro-benzyl)-4-oxo-1,4-dihydro-thieno[3,2-d]pyrimidin-6-yl]-pyridin-3-yl}-amide] had a pIC50 of 6.88. The same measure for `O=C(CCCO)Nc1ccc(-c2cc3c(s2)c(=O)ncn3Cc2ccc(Cl)cc2)cc1Cl` [Compound I-30, N-{2-Chloro-4-[1-(4-chloro-benzyl)-4-oxo-1,4-dihydro-thieno[3,2-d]pyrimidin-6-yl]-phenyl}-4-hydroxy-butyramide]: 6.55; for `CCCCOc1ccc(-c2cc3c(s2)c(=O)ncn3Cc2ccc(Cl)cc2)cc1Cl` [Compound I-25, 6-(4-Butoxy-3-chloro-phenyl)-1-(4-chloro-benzyl)-1H-thieno[3,2-d]pyrimidin-4-one]: 6.81; for `CC(C)C(=O)Nc1ccc(-c2cc3c(s2)c(=O)ncn3Cc2ccc(Cl)cc2)cc1F` [Compound I-55]: 5.75.

The compound `Cc1ccc(Cn2cnc(=O)c3sc(-c4ccc(-c5ccccc5)cc4)cc32)cc1` [Compound I-13] gave a pIC50 of 7.35.

The compound `CC(=O)Nc1ccc(-c2cc3c(s2)c(=O)ncn3Cc2ccc(Cl)cc2)cc1` [Compound I-37, N-{4-[1-(4-Chloro-benzyl)-4-oxo-1,4-dihydro-thieno[3,2-d]pyrimidin-6-yl]-phenyl}-acetamide] gave a pIC50 of 6.23.

In turn, `O=C(Nc1ccc(-c2cc3c(s2)c(=O)ncn3Cc2ccc(Cl)cc2)cc1)N1CCCC1` [Compound I-54, Pyrrolidine-1-carboxylic acid {4-[1-(4-chloro-benzyl)-4-oxo-1,4-dihydro-thieno[3,2-d]pyrimidin-6-yl]-phenyl}-amide] gave a pIC50 of 7.12. The compound `O=C(Nc1ccc(-c2cc3c(s2)c(=O)ncn3Cc2ccc(Cl)cc2)cc1)c1ccno1` [Compound I-32, Isoxazole-5-carboxylic acid {4-[1-(4-chloro-benzyl)-4-oxo-1,4-dihydro-thieno[3,2-d]pyrimidin-6-yl]-phenyl}-amide] had a pIC50 of 6.51. The compound `O=c1ncn(Cc2ccc(Cl)cc2)c2cc(-c3ccc(SCc4ccccc4)cc3)sc12` [Compound I-20, 6-(4-Benzylsulfanyl-phenyl)-1-(4-chloro-benzyl)-1H-thieno[3,2-d]pyrimidin-4-one] had a pIC50 of 6.98.

`Cc1ccc(Cn2cnc(=O)c3sc(-c4ccc(-c5cc6ncccc6o5)cc4)cc32)cc1` [Compound I-19, 6-(4-Furo[3,2-b]pyridin-2-yl-phenyl)-1-(4-methyl-benzyl)-1H-thieno[3,2-d]pyrimidin-4-one]: the pIC50 was 7.09.

(Values after US20110070190A1 (Roche Palo Alto LLC, priority 2009, published 2011).)
